Earlier results as cited in patent US20110177137A1, “NOVEL DOSAGE FORM OF PALIPERIDONE AND PROCESS FOR PREPARING THE SAME” (INTAS PHARMACEUTICALS LIMITED, priority 2008, published 2011).

Cc1nc2n(c(=O)c1CCN1CCC(c3noc4cc(F)ccc34)CC1)CCCC2O (stereo not drawn) [Paliperidone]
solubility in 0.1 N HCl (0.1 N HCl): soluble
solubility in methyl chloride (methyl chloride): partly soluble
solubility in water (water): insoluble
